The target in one experiment is T1, FKBP52 (Homo sapiens, UniProt Q02790).
T1 construct: Purified FK1-domains of FKBP51WT (4.5 nM) with F4 (3 nM), FKBP52WT (400 nM) with F2 (20 nM); implied by Ni-NTA purification) (N); made in house; host or cells: E. coli BL21(DE3)pLysS
T1 sequence (Q02790 50-138 limits assumed): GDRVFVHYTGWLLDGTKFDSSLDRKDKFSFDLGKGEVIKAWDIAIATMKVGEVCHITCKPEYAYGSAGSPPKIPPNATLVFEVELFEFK
The experiment is described as follows: Fluorescence polarization binding assay, FK1-domain of FKBP52WT with tracer F2 (selectivity FKBP51 vs. FKBP52). As to conditions: selectivity factor over FKBP52; compounds B01-C25. The procedure: (§1) The target protein was also diluted in this assay buffer at double the highest concentration required for the final sample. This protein stock was used for a 1:1 serial dilution.
(§2) The inventive compound was dissolved in DMSO to reach a 100-times concentrated stock solution. This was used for a 1:1 serial dilution in DMSO.
(§3) For FKBP12, −51, and −52 the binding assays were performed in duplicates in the plate format.
(§4) The competition curves were analyzed by using SigmaPlot9. Data were fitted to a four parameter logistic curve to deduce the IC50 values. […] A=(Amax−Amin)/[L]t×(([L]t×((2×((Klig+Kcomp+[L]t+[I]t−[R]t)^2−3×(Kcomp×([L]t−[R]t)+Klig×([I]t−[R]t)+Klig×Kcomp))^0.5×COS(ARCCOS((−2×(Klig+Kcomp+[L]t+[I]t−[R]t)^3+9×(Klig+Kcomp+[L]t+[I]t−[R]t)×(Kcomp×([L]t−[R]t)+Klig×([I]t−[R]t)+Klig×Kcomp)−27×(−1×Klig×Kcomp×[R]t))/(2×((((Klig+Kcomp+[L]t+[I]t−[R]t)^2−3×(Kcomp×([L]t−[R]t)+Klig×([I]t−[R]t)+Klig×Kcomp))^3)^0.5)))/3))−(Klig+Kcomp+[L]t+[I]t−[R]t)))/((3×Klig)+((2×((Klig+Kcomp+[L]t+[I]t−[R]t)^2−3×(Kcomp×([L]t−[R]t)+Klig×([I]t−[R]t)+Klig×Kcomp))^0.5×COS(ARCCOS((−2×(Klig+Kcomp+[L]t+[I]t−[R]t)^3+9×(Klig+Kcomp+[L]t+[I]t−[R]t)×(Kcomp×([L]t−[R]t)+Klig×([I]t−[R]t)+Klig×Kcomp)−27×(−1×Klig×Kcomp×[R]t))/(2×((((Klig+Kcomp+[L]t+[I]t−[R]t)^2−3×(Kcomp×([L]t−[R]t)+Klig×([I]t−[R]t)+Klig×Kcomp))^3)^0.5)))/3))−(Klig+Kcomp+[L]t+[I]t−[R]t))))+Amin
(§5) In this equation Klig and Kcomp stand for the Kd values of the used tracer or competing inhibitor, [I]t is referring to the total concentration of the titrated inhibitor.
The Selectivity of the Compounds was Classified by Ki(FKBP51)/Ki(FKBP52)
(§6) Inhibition constants were measured in a fluorescence polarization binding assay by titrating the compounds.

The target in a further experiment is T2, FKBP51 (Homo sapiens, UniProt Q13451).
T2 sequence (Q13451 42-130 limits assumed): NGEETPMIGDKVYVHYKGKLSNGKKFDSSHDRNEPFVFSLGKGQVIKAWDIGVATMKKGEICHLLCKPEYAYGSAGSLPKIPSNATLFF
As to the kind of experiment: Fluorescence polarization binding assay, FK1-domain of FKBP51WT with tracer F4. As to conditions: compounds B01-C25; read-out: Affinity(Ki) for FKBP51. Further details: Purified FK1-domains of FKBP51WT (4.5 nM) with F4 (3 nM), FKBP52WT (400 nM) with F2 (20 nM); made in house; host or cells: E. coli BL21(DE3)pLysS. As for the experimental part: as §1, §2, §3, §4, §5, §6

On to `CC[C@H](NC(=O)[C@@H]1CCCCN1C(=O)[C@H](c1cc(OC)c(OC)c(OC)c1)C1CCCCC1)C(N)=O` [Compound B12, (S)-N-((S)-1-amino-1-oxobutan-2-yl)-1-((S)-2-cyclohexyl-2-(3,4,5-trimethoxyphenyl)acetyl)piperidine-2-carboxamide], for which the “Ki(FKBP51)/Ki(FKBP52)” value at FKBP52 is given as “++ (>50 ++)”. Moreover, the Ki on FKBP51 fell in the range of 1 to 10 µM.
On the same counts, the results for `CC[C@@H](NC(=O)[C@@H]1CCCCN1C(=O)[C@H](c1cc(OC)c(OC)c(OC)c1)C1CCCCC1)C(N)=O` [Compound B13, (S)-N-((R)-1-amino-1-oxobutan-2-yl)-1-((S)-2-cyclohexyl-2-(3,4,5-trimethoxyphenyl)acetyl)piperidine-2-carboxamide] are “++ (>50 ++)” and 1 to 10 µM.
As to `CC[C@H](C)[C@H](NC(=O)[C@@H]1CCCCN1C(=O)[C@H](c1cc(OC)c(OC)c(OC)c1)C1CCCCC1)C(N)=O` [Compound B14, (S)-N-((2S,3S)-1-amino-3-methyl-1-oxopentan-2-yl)-1-((S)-2-cyclohexyl-2-(3,4,5-trimethoxyphenyl)acetyl)piperidine-2-carboxamide], the “Ki(FKBP51)/Ki(FKBP52)” value on FKBP52 is reported as “++ (>50 ++)”. The Ki on FKBP51 lay in the range of 1 to 10 µM.
Take `CC[C@@H](C)[C@@H](NC(=O)[C@@H]1CCCCN1C(=O)[C@H](c1cc(OC)c(OC)c(OC)c1)C1CCCCC1)C(N)=O` [Compound B15, (S)-N-((2R,3R)-1-amino-3-methyl-1-oxopentan-2-yl)-1-((S)-2-cyclohexyl-2-(3,4,5-trimethoxyphenyl)acetyl)piperidine-2-carboxamide]: the “Ki(FKBP51)/Ki(FKBP52)” value on FKBP52 is listed as “++ (>50 ++)”. In addition, the Ki at FKBP51 was 1 to 10 µM.
As to `COc1cc([C@@H](C(=O)N2CCCC[C@H]2C(=O)N[C@H](C(N)=O)C2CCCCC2)C2CCCCC2)cc(OC)c1OC` [Compound B18, (S)-N-((S)-2-amino-1-cyclohexyl-2-oxoethyl)-1-((S)-2-cyclohexyl-2-(3,4,5-trimethoxyphenyl)acetyl)piperidine-2-carboxamide], the “Ki(FKBP51)/Ki(FKBP52)” value on FKBP52 is recorded as “++ (>50 ++)”. Further, the Ki on FKBP51 was 1 to 10 µM.
On the same counts, the results for `COc1cc([C@@H](C(=O)N2CCCC[C@H]2C(=O)N[C@H](CO)C(N)=O)C2CCCCC2)cc(OC)c1OC` [Compound B21, (S)-N-((R)-1-amino-3-hydroxy-1-oxopropan-2-yl)-1-((S)-2-cyclohexyl-2-(3,4,5-trimethoxyphenyl)acetyl)piperidine-2-carboxamide] are “++ (>50 ++)” and 1 to 10 µM.
In the same order, the values of `COc1cc([C@@H](C(=O)N2CCCC[C@H]2C(=O)N[C@@H](CO)C(N)=O)C2CCCCC2)cc(OC)c1OC` [Compound B22, (S)-N-((S)-1-amino-3-hydroxy-1-oxopropan-2-yl)-1-((S)-2-cyclohexyl-2-(3,4,5-trimethoxyphenyl)acetyl)piperidine-2-carboxamide] are “++ (>50 ++)” and 1 to 10 µM.
In the same order, the values of `COc1cc([C@@H](C(=O)N2CCCC[C@H]2C(=O)N[C@@H](CCC(N)=O)C(N)=O)C2CCCCC2)cc(OC)c1OC` [Compound B23, (S)-2-((S)-1-((S)-2-cyclohexyl-2-(3,4,5-trimethoxyphenyl)acetyl)piperidine-2-carboxamido)pentanediamide] are “+ (>5 +)” and 10 to 50 µM.
Regarding `COc1cc([C@@H](C(=O)N2CCCC[C@H]2C(=O)N[C@H](CCC(N)=O)C(N)=O)C2CCCCC2)cc(OC)c1OC` [Compound B24, (R)-2-((S)-1-((S)-2-cyclohexyl-2-(3,4,5-trimethoxyphenyl)acetyl)piperidine-2-carboxamido)pentanediamide], the “Ki(FKBP51)/Ki(FKBP52)” value at FKBP52 is “++ (>50 ++)”. In addition, the Ki on FKBP51 fell in the range of 1 to 10 µM.
On the same counts, the results for `COc1cc([C@@H](C(=O)N2CCCC[C@H]2C(=O)NC(C)(C)CC(N)=O)C2CCCCC2)cc(OC)c1OC` [Compound B25, (S)-N-(4-amino-2-methyl-4-oxobutan-2-yl)-1-((S)-2-cyclohexyl-2-(3,4,5-trimethoxyphenyl)acetyl)piperidine-2-carboxamide] are “+++ (>500 +++)” and 1 to 10 µM.
On the same counts, the results for `COc1cc([C@@H](C(=O)N2CCCC[C@H]2C(=O)NC2(C(N)=O)CC2)C2CCCCC2)cc(OC)c1OC` [Compound B26, (S)-N-(1-carbamoylcyclopropyl)-1-((S)-2-cyclohexyl-2-(3,4,5-trimethoxyphenyl)acetyl)piperidine-2-carboxamide] are “++ (>50 ++)” and 10 to 50 µM.
Consider `COc1cc([C@@H](C(=O)N2CCCC[C@H]2C(=O)NC2(C(N)=O)CCC2)C2CCCCC2)cc(OC)c1OC` [Compound B27, (S)-N-(1-carbamoylcyclobutyl)-1-((S)-2-cyclohexyl-2-(3,4,5-trimethoxyphenyl)acetyl)piperidine-2-carboxamide], for which the “Ki(FKBP51)/Ki(FKBP52)” value on FKBP52 is given as “++ (>50 ++)”. In addition, the Ki on FKBP51 was 1 to 10 µM.
Regarding `COc1cc([C@@H](C(=O)N2CCCC[C@H]2C(=O)NC2(C(N)=O)CCCC2)C2CCCCC2)cc(OC)c1OC` [Compound B28, (S)-N-(1-carbamoylcyclopentyl)-1-((S)-2-cyclohexyl-2-(3,4,5-trimethoxyphenyl)acetyl)piperidine-2-carboxamide], the “Ki(FKBP51)/Ki(FKBP52)” value on FKBP52 is recorded as “++++ (>5000 ++++)”. Besides, the Ki at FKBP51 fell in the range of 0.1 to 1 µM.
On the same counts, the results for `COc1cc([C@@H](C(=O)N2CCCC[C@H]2C(=O)NCCC(N)=O)C2CCCCC2)cc(OC)c1OC` [Compound B29, (S)-N-(3-amino-3-oxopropyl)-1-((S)-2-cyclohexyl-2-(3,4,5-trimethoxyphenyl)acetyl)piperidine-2-carboxamide] are “++ (>50 ++)” and 1 to 10 µM.
`COc1cc([C@@H](C(=O)N2CCCC[C@H]2C(=O)N[C@@H](CC(C)C)C(N)=O)C2CCCCC2)cc(OC)c1OC` [Compound B30, (S)-N-((S)-1-amino-4-methyl-1-oxopentan-2-yl)-1-((S)-2-cyclohexyl-2-(3,4,5-trimethoxyphenyl)acetyl)piperidine-2-carboxamide]: the “Ki(FKBP51)/Ki(FKBP52)” value on FKBP52 is recorded as “++ (>50 ++)”. Also, on FKBP51, the Ki lay within 1 to 10 µM.
On the same counts, the results for `COc1cc([C@@H](C(=O)N2CCCC[C@H]2C(=O)NC2(C(N)=O)CCCCC2)C2CCCCC2)cc(OC)c1OC` [Compound B31, (S)-N-(1-carbamoylcyclohexyl)-1-((S)-2-cyclohexyl-2-(3,4,5-trimethoxyphenyl)acetyl)piperidine-2-carboxamide] are “++ (>50 ++)” and 1 to 10 µM.
On the same counts, the results for `COc1cc([C@@H](C(=O)N2CCCC[C@H]2C(=O)NC2(C(N)=O)CCOCC2)C2CCCCC2)cc(OC)c1OC` [Compound B32] are “++ (>50 ++)” and 10 to 50 µM.
Turning to `COc1cc([C@@H](C(=O)N2CCCC[C@H]2C(=O)NC2(C(=O)NCC(N)=O)CCCC2)C2CCCCC2)cc(OC)c1OC` [Compound B33, (S)-N-(1-((2-amino-2-oxoethyl)carbamoyl)cyclopentyl)-1-((S)-2-cyclohexyl-2-(3,4,5-trimethoxyphenyl)acetyl)piperidine-2-carboxamide], the “Ki(FKBP51)/Ki(FKBP52)” value on FKBP52 was “+++ (>500 +++)”. Further, the inhibition constant Ki on FKBP51 was in the range of 1 to 10 µM.

The values above are taken from US9845292B2 (Max-Planck-Gesellschaft zur Förderung der Wissenschaften …, priority 2013, dated 2017).
